Converted amounts (≈) assume the structure as drawn. Read-outs that look alike come from different tables or passages of the source.
How the values were obtained:
[1] = test system: S. aureus ATCC 29213; test: MIC broth microdilution (NCCLS); format: cell-based, Staphylococcus aureus; settings: Staphylococcus aureus, ATCC29213; S. aureus ATCC 29213; read-out: MIC
Method: (§1) Minimal Inhibitory Concentration (MIC) Determination. Bacteria (primary strain panel, TABLE 1). Susceptibility tests were performed following the recommendations from the National Committee for Clinical Standards (NCCLS). The MICs were determined by a broth microdilution technique using a final volume of 100 μl of cation-adjusted Mueller Hinton Broth (MHBCA) and a bacterial inoculum of 10^5-10^6 Colony Forming Units (CFU)/ml. The inocula were verified and precisely determined by applying 10-μl drops of 10-fold dilutions onto Triptic Soy Agar plates. The CFU were counted after an incubation of 24 h at 35° C. Any experiment showing an inoculum that was more or less than 10^5-10^6 CFU/ml was rejected. Control antibiotics and test compounds were prepared at a concentration equivalent to 2-fold the highest desired final concentration. Compounds were then diluted directly in the 96-well microtiter plates by serial 2-fold dilutions using a multichannel pipette. Microtiter plates were incubated during 24 h at 35° C. and growth was recorded by using a microtiterplate reader at 650 nm as well as by visual observation. The MIC was defined as the lowest concentration of compound yielding no visible growth. […] Fastidious bacteria. The medium used for Listeria monocytogenes, Neisseria meningitidis, and Campylobacter jejuni was MHBCA containing 2% laked horse blood. The medium used for Haemophilus influenzae and Branhamella (Moraxella) catarrhalis was HTM as recommended by the NCCLS. Cultures of these fastidious bacteria were incubated at 35° C. in a 5% CO2 atmosphere. […] The medium used for Bacteroides fragilis was Wilkins Chalgren broth and growth was allowed under an anaerobic atmosphere at 35° C. for 48 hours.

[2] = test system: S. aureus MRSA COL; test: MIC broth microdilution (NCCLS); format: cell-based, Staphylococcus aureus; settings: Staphylococcus aureus, MRSA, S. aureus MRSA COL; read-out: MIC
Method: as §1, with “hours. […]” for “hours.”

[3] = test system: S. epidermidis ATCC 12228; test: MIC broth microdilution (NCCLS); format: cell-based, Staphylococcus epidermidis; settings: Staphylococcus epidermidis, ATCC12228; S. epidermidis ATCC 12228; read-out: MIC
Method: as §1

[4] = test system: S. saprophyticus ATCC 15305; test: MIC broth microdilution (NCCLS); format: cell-based, Staphylococcus saprophyticus; settings: Staphylococcus saprophyticus, ATCC15305; S. saprophyticus ATCC 15305; read-out: MIC
Method: as §1

[5] = test system: E. faecalis ATCC 29212; test: MIC broth microdilution (NCCLS); format: cell-based, Enterococcus faecalis; settings: Enterococcus faecalis, ATCC29212; E. faecalis ATCC 29212; read-out: MIC
Method: as §1

[6] = test system: E. faecium ATCC 35667; test: MIC broth microdilution (NCCLS); format: cell-based, Enterococcus faecium
Method: as §1

[7] = test system: E. coli ATCC 25922; test: MIC broth microdilution (NCCLS); format: cell-based, Escherichia coli; settings: Escherichia coli, ATCC25922, E. coli ATCC 25922 (Reference); read-out: MIC
Method: as §1

[8] = test system: H. influenzae ATCC 49247; test: MIC broth microdilution (NCCLS), fastidious bacteria; format: cell-based; settings: Haemophilus influenzae, ATCC49247, HTM, 5% CO2
Method: as §1

[9] = test system: H. influenzae ATCC 49766; test: as above; format: cell-based; settings: Haemophilus influenzae, ATCC49766, HTM, 5% CO2
Method: as §1

[10] = test system: B. catarrhalis ATCC 8176; test: as above; format: cell-based, Branhamella (Moraxella) catarrhalis; settings: Moraxella catarrhalis, ATCC8176, HTM, 5% CO2
Method: as §1

[11] = test system: E. faecium VanA; test: MIC broth microdilution, antibiotic resistant strain panel; format: cell-based; settings: Enterococcus faecium; multi-resistant E. faecium VanA; read-out: MIC
Method: as §1
Finally, compounds were also tested against populations of various clinical strains (antibiotic resistant strain panel, TABLE 1).

[12] = test system: H. influenzae ATCC 49766; test: Minimal Bactericidal Concentration (MBC); format: cell-based; settings: Haemophilus influenzae, ATCC49766, 99.9% killing
Method: (§2) Minimal Bactericidal Concentration (MBC). After the microtiter plates were read for the determination of the MIC, a 10-μl sample of each clear well (at least 5 wells without visible growth) was applied onto TSA plates for viable counts determination.
(§3) Petri dishes were incubated at 35° C. for exactly 24 h and bacterial colonies were counted.

[13] = test system: B. catarrhalis ATCC 8176; test: Minimal Bactericidal Concentration (MBC); format: cell-based, Branhamella (Moraxella) catarrhalis; settings: Moraxella catarrhalis, ATCC8176, 99.9% killing
Method: as §2, §3

[14] = test system: S. typhimurium ATCC14028; test: MIC broth microdilution (NCCLS); format: cell-based, Salmonella typhimurium; settings: Salmonella enterica
Method: as §1

[15] = test system: A. baumannii ATCC 19606; test: MIC broth microdilution (NCCLS); format: cell-based, Acinetobacter baumannii; settings: Acinetobacter baumannii, ATCC19606, read-out: MIC
Method: as §1

[16] = test system: Y. enterocolytica ATCC 23715; test: MIC broth microdilution (NCCLS); format: cell-based, Yersinia enterocolytica; settings: Yersinia, ATCC23715, read-out: MIC
Method: as §1

[17] = test system: H. influenzae ATCC 49247; test: Minimal Bactericidal Concentration (MBC); format: cell-based; settings: Haemophilus influenzae, ATCC49247, 99.9% killing
Method: as §2, §3

[18] = Enterococcus faecium, ATCC35667, E. faecium ATCC 35667, read-out: MIC

MIC [1]	MIC [2]	MIC [3]	MIC [4]	MIC [5]	MIC [6, 18]	MIC [7]	MIC [8]	MIC [9]	MIC [10]	Compound	MIC [11]	MBC [12]	MBC [13]	MIC ([6]; E. faecium ATCC 35667)	MIC [14]	MIC [15]	MIC [16]	MBC [17]
2 µg/mL (≈ 3.61 µM)	512 µg/mL (≈ 923 µM)	1 µg/mL (≈ 1.8 µM)	8 µg/mL (≈ 14.4 µM)	8 µg/mL (≈ 14.4 µM)	64 µg/mL (≈ 115 µM)	0.03 to 0.06 µg/mL (≈ 0.0541 to 0.108 µM)				CO/N=C(\C(=O)N[C@@H]1C(=O)N2C(C(=O)O)=C(CSc3nc(=O)c(=O)[nH]n3C)CS[C@H]12)c1csc(N)n1 [Ceftriaxone]								
				16 µg/mL (≈ 21.4 µM)			16 µg/mL (≈ 21.4 µM)	128 µg/mL (≈ 171 µM)	0.5 µg/mL (≈ 0.668 µM)	CC[C@H]1OC(=O)[C@H](C)[C@@H](O[C@H]2C[C@@](C)(OC)[C@@H](O)[C@H](C)O2)[C@H](C)[C@@H](O[C@@H]2O[C@H](C)C[C@H](N(C)C)[C@H]2O)[C@](C)(OC)C[C@@H](C)C(=O)[C@H](C)[C@@H](O)[C@]1(C)O [Clarithromycin]	> 128 µg/mL	> 128 µg/mL	1 µg/mL (≈ 1.34 µM)					
0.06 µg/mL (≈ 0.156 µM)	16 µg/mL (≈ 41.7 µM)	0.06 µg/mL (≈ 0.156 µM)	0.25 µg/mL (≈ 0.652 µM)	2 to 4 µg/mL (≈ 5.22 to 10.4 µM)	16 µg/mL (≈ 41.7 µM)	0.015 to 0.06 µg/mL (≈ 0.0391 to 0.156 µM)	0.06 µg/mL (≈ 0.156 µM)	0.03 µg/mL (≈ 0.0782 µM)	0.002 µg/mL (≈ 0.00522 µM)	C[C@@H](O)[C@H]1C(=O)N2C(C(=O)O)=C(S[C@@H]3CN[C@H](C(=O)N(C)C)C3)[C@H](C)[C@H]12 [Meropenem]		0.06 µg/mL (≈ 0.156 µM)	0.008 µg/mL (≈ 0.0209 µM)			2 µg/mL (≈ 5.22 µM)	> 0.5 µg/mL	0.06 µg/mL (≈ 0.156 µM)

Compound	MIC [1]	MIC [2]	MIC [3]	MIC [4]	MIC [5]	MIC [6, 18]	MIC [7]	MIC [8]	MIC [9]	MIC [10]	MIC [11]	MBC [12]	MBC [13]	MIC ([6]; E. faecium ATCC 35667)	MIC [14]	MIC [15]	MIC [16]	MBC [17]
O=C1OCCN1/N=C/c1ccc([N+](=O)[O-])o1 [Furazolidone]	4 to 16 µg/mL (≈ 17.8 to 71.1 µM)	8 µg/mL (≈ 35.5 µM)	2 to 4 µg/mL (≈ 8.88 to 17.8 µM)	2 µg/mL (≈ 8.88 µM)	8 to 16 µg/mL (≈ 35.5 to 71.1 µM)	> 128 µg/mL	1 to 2 µg/mL (≈ 4.44 to 8.88 µM)				64 µg/mL (≈ 284 µM)			>64 µg/mL	2 µg/mL (≈ 8.88 µM)	32 µg/mL (≈ 142 µM)	> 16 µg/mL	

Source: patent publication US7410974B2, “Halogenated Quinazolinyl nitrofurans as antibacterial agents” (Ulysses Pharmaceutical Products, Inc., priority 2003, dated 2008)
